Laboratory results reported in publication PMC5187517, “Pectocin M1 (PcaM1) Inhibits Escherichia coli Cell Growth and Peptidoglycan Biosynthesis through Periplasmic Expression” (Antibiotics, 2016).

Biological target: T1, pectocin M1 (PcaM1) (Pectobacterium carotovorum, UniProt C6DJ69)
T1 construct: gene PC1_2303; full-length, C-terminal Arg-Ser-His6 tag kept, initiator Met lost; expressed in E. coli C43(DE3) from pMLD365; monomer; theoretical mass 30,401 Da with tag (observed m/z 30,266); plant-like ferredoxin domain plus cytotoxic domain
T1 sequence (C6DJ69 2-268): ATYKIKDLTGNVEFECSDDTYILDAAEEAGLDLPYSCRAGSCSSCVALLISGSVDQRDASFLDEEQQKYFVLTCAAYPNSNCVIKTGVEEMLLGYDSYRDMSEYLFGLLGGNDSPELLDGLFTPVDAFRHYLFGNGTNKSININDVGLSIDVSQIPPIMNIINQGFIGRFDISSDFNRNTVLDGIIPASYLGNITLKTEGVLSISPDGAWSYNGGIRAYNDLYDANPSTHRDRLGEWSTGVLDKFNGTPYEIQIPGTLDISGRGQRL
Experiment: radiolabelled lipid II hydrolysis, TLC with radioactivity scanner
Format: biochemical
Conditions: labelled compound ([14C] in GlcNAc moiety); 100 mM Tris-HCl pH 7.5, 20 mM MgCl2, 150 mM NaCl, 10 mM 2-mercaptoethanol, 0.2% DDM, 37 °C, lipid II 6–100 µM

Compound `CC(=O)N[C@H]1[C@H](O[C@H]2[C@H](O[C@H](C)C(=O)N[C@@H](C)C(=O)N[C@H](CCC(=O)N[C@@H](CCC[C@@H](N)C(=O)O)C(=O)N[C@H](C)C(=O)N[C@H](C)C(=O)O)C(=O)O)[C@@H](NC(C)=O)[C@@H](OP(=O)(O)OP(=O)(O)OC/C=C(/C)CC/C=C(/C)CC/C=C(/C)CC/C=C(/C)CC/C=C(/C)CC/C=C(/C)CC/C=C(/C)CC/C=C(/C)CC/C=C(\C)CC/C=C(\C)CCC=C(C)C)O[C@@H]2CO)O[C@H](CO)[C@@H](O)[C@@H]1O` [lipid II, C55-PP-MurNAc(L-Ala-γ-D-Glu-meso-A2pm-D-Ala-D-Ala)-GlcNAc] has a Km of 55 µM.
